Laboratory results taken from ChEMBL document CHEMBL1201862, “PubChem BioAssay data set” (2004).
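Values below derive from 48-hour exposures of cells grown in 96-well plates, with endpoints linearly interpolated between the two concentrations bracketing the appropriate inhibition level. GI50: concentration for 50% inhibition of growth.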 Active and inactive are the calls of the source. No stated cut-off is given here; in the data, active = GI50 up to about 1.1 µM and inactive = higher.

Assays:
Test in all cases: DTP human tumour cell line panel, 48 h
SR = tested on: SR
HOP-92 = tested on: HOP-92
UACC-62 = tested on: UACC-62
SF-539 = tested on: SF-539
ACHN = tested on: ACHN
PC-3 = tested on: PC-3
EKVX = tested on: EKVX
IGROV-1 = tested on: IGROV-1
NCI/ADR-RES = tested on: NCI/ADR-RES
MCF7 = tested on: MCF7
COLO 205 = tested on: COLO 205
SN12C = tested on: SN12C
SF-295 = tested on: SF-295
HCT-116 = tested on: HCT-116
M14 = tested on: M14
HOP-62 = tested on: HOP-62
SNB-75 = tested on: SNB-75
K562 = tested on: K562
UO-31 = tested on: UO-31
HCC 2998 = tested on: HCC 2998
MDA-MB-435 = tested on: MDA-MB-435
A549 = tested on: A549
OVCAR-5 = tested on: OVCAR-5
NCI-H522 = tested on: NCI-H522
SK-OV-3 = tested on: SK-OV-3
HL-60 = tested on: HL-60
SK-MEL-28 = tested on: SK-MEL-28
MOLT-4 = tested on: MOLT-4
HCT-15 = tested on: HCT-15
MDA-MB-231 = tested on: MDA-MB-231
HT-29 = tested on: HT-29
RXF 393 = tested on: RXF 393
OVCAR-4 = tested on: OVCAR-4
NCI-H23 = tested on: NCI-H23
UACC-257 = tested on: UACC-257
RPMI-8226 = tested on: RPMI-8226
OVCAR-3 = tested on: OVCAR-3
Hs-578T = tested on: Hs-578T
786-0 = tested on: 786-0
Malme-3M = tested on: Malme-3M
OVCAR-8 = tested on: OVCAR-8
SK-MEL-5 = tested on: SK-MEL-5
CAKI-1 = tested on: CAKI-1
BT-549 = tested on: BT-549
NCI-H226 = tested on: NCI-H226
LOX IMVI = tested on: LOX IMVI
CCRF-CEM = tested on: CCRF-CEM
MDA-N = tested on: MDA-N
KM12 = tested on: KM12
T47D = tested on: T47D
DU-145 = tested on: DU-145
U-251 = tested on: U-251
SNB-19 = tested on: SNB-19
SW-620 = tested on: SW-620
SF-268 = tested on: SF-268
NCI-H460 = tested on: NCI-H460

`C=O.NNCCc1n[nH]c(=O)n1N` was tested, and the GI50 (SR) was > 100 µM (inactive), the GI50 (HOP-92) was > 100 µM (inactive) and the GI50 (UACC-62) was > 100 µM (inactive). For the same molecule, the GI50 (SF-539) was > 100 µM (inactive), the GI50 (ACHN) was > 100 µM (inactive) and the GI50 (PC-3) was > 100 µM (inactive). For the same molecule, the GI50 (EKVX) was > 100 µM (inactive), the GI50 (IGROV-1) was > 100 µM (inactive) and the GI50 (NCI/ADR-RES) was > 100 µM (inactive). The GI50 (MCF7) was > 100 µM (inactive), the GI50 (COLO 205) was > 100 µM (inactive) and the GI50 (SN12C) was > 100 µM (inactive). The GI50 (SF-295) was > 100 µM (inactive), the GI50 (HCT-116) was > 100 µM (inactive) and the GI50 (M14) was > 100 µM (inactive). For the same molecule, the GI50 (HOP-62) was > 100 µM (inactive), the GI50 (SNB-75) was 97.7 µM (inactive) and the GI50 (K562) was > 100 µM (inactive). The GI50 (UO-31) was > 100 µM (inactive), the GI50 (HCC 2998) was > 100 µM (inactive) and the GI50 (MDA-MB-435) was > 100 µM (inactive). For the same molecule, the GI50 (A549) was > 100 µM (inactive), the GI50 (OVCAR-5) was > 100 µM (inactive) and the GI50 (NCI-H522) was > 100 µM (inactive). For the same molecule, the GI50 (SK-OV-3) was > 100 µM (inactive), the GI50 (HL-60) was > 100 µM (inactive) and the GI50 (SK-MEL-28) was > 100 µM (inactive). The GI50 (MOLT-4) was > 100 µM (inactive), the GI50 (HCT-15) was greater than 100 µM and the GI50 (MDA-MB-231) was > 100 µM (inactive). The GI50 (HT-29) was > 100 µM (inactive), the GI50 (RXF 393) was > 100 µM (inactive) and the GI50 (OVCAR-4) was > 100 µM (inactive). For the same molecule, the GI50 (NCI-H23) was > 100 µM (inactive), the GI50 (UACC-257) was > 100 µM (inactive) and the GI50 (RPMI-8226) was > 100 µM (inactive). The GI50 (OVCAR-3) was > 100 µM (inactive), the GI50 (Hs-578T) was > 100 µM (inactive) and the GI50 (786-0) was > 100 µM (inactive). The GI50 (Malme-3M) was > 100 µM (inactive), the GI50 (OVCAR-8) was > 100 µM (inactive) and the GI50 (SK-MEL-5) was > 100 µM (inactive). For the same molecule, the GI50 (CAKI-1) was > 100 µM (inactive), the GI50 (BT-549) was > 100 µM (inactive) and the GI50 (NCI-H226) was > 100 µM (inactive). For the same molecule, the GI50 (LOX IMVI) was > 100 µM (inactive), the GI50 (CCRF-CEM) was > 100 µM (inactive) and the GI50 (MDA-N) was > 100 µM (inactive). For the same molecule, the GI50 (KM12) was > 100 µM (inactive), the GI50 (T47D) was > 100 µM (inactive) and the GI50 (DU-145) was > 100 µM (inactive). The GI50 (U-251) was > 100 µM (inactive), the GI50 (SNB-19) was > 100 µM (inactive) and the GI50 (SW-620) was > 100 µM (inactive). The GI50 (SF-268) was > 100 µM (inactive) and the GI50 (NCI-H460) was > 100 µM (inactive).
